Experimental data reported in patent US7468443B2, “Alkyl ether derivatives or salts thereof” (Toyama Chemical Co., Ltd., priority 2001, dated 2008).
Counter-ions that a name gives are not always drawn.

What was measured:
[1] = Metabolism in human liver microsomes; type: in vitro ADME; conditions: incubation at 37° C. for 60 minutes, pooled human liver microsomes, NADPH generating system
Protocol: [Metabolism in Human Liver Microsomes]
In a test tube were placed 50 μL of 100 mmol/L potassium phosphate buffer (pH 7.4) and 25 μL of 3 mg protein/mL pooled human liver microsomes (available from Gentest Inc.), and a solution prepared by blending 10 μL of 66 mmol/L sodium glucose 6-phosphate, 10 μL of 10 units/mL glucose 6-phosphate dehydrogenase, 10 μL of 26 mmol/L nicotinamide adenine dinucleotide phosphate oxidized form, 10 μL of 66 mmol/L magnesium chloride and 135 μL of 100 mmol/L potassium phosphate buffer (pH 7.4) was added thereto, followed by preincubation for 5 minutes. Thereto was added 50 μL of each test compound to a concentration of 6 μmol/L to initiate the reaction, and incubation was carried out at 37° C. for 60 minutes (final volume: 300 μL). The reaction was terminated by the addition of 600 μL of acetonitrile, followed by centrifugation at 12000×g and at 4° C. for 15 minutes. The supernatant was separated, concentrated by centrifugation under reduced pressure, and then subjected to high performance liquid chromatography, and the amount of the residual test compound after the metabolic reaction was determined.
The residual rate was calculated by the following equation: Residual rate (%)=[(peak area due to the test compound after 60 minutes of the reaction)/(peak area due to the test compound in the case of stopping the reaction by adding acetonitrile simultaneously with the addition of the test compound after the preincubation)]×100

PC12 cells = test: Activity to accelerate neurite outgrowth (NGF-treated PC12 cells); type: cell-based, rat; conditions: test compound 10 μM with 2.5s-NGF 40 ng/mL, 48 hours; neutrite outgrowth rate due to NGF taken as 100%
Protocol: [Activity to Accelerate Neurite Outgrowth]
PC12 cells [rat adrenomedullary chromaffinoma (NGF responders)] were cultured in an incubator (5% CO2, 37° C.) by using RPMI1640 medium (available from Nissui Pharmaceutical Co., Ltd.) containing 5% heat inactivated (56° C., 30 minutes) horse serum (available from Bio-Whittaker Inc.), 5% heat inactivated (56° C., 30 minutes) fetal calf serum (available from Sigma Chemical Co.) and 25 μg/ml gentamicin (available from GIBCO BRL).
The cultured PC12 cells were incubated at 37° C. for 30 minutes in phosphate-buffered physiological saline containing 1 mM EDTA, to be detached from a culture flask. The concentration of the cultured PC12 cells was adjusted to 5×10^4 cells/mL with RPMI1640 medium containing 1.5% heat inactivated horse serum, 1.5% heat inactivated fetal calf serum and 25 μg/ml gentamicin, and the resulting cell suspension was dispensed in 2 ml portions into 35-mm tissue culture dishes (mfd. by Falcon Inc.) coated with 0.01% polyornithine [dissolved in 150 mM borate buffer (pH 8.4)]. Then, 2.5s-NGF (available from Wako Pure Chemical Industries, Ltd.) [dissolved in phosphate-buffered physiological saline containing 0.1% bovine serum albumin] and each test compound were added to the medium at the same time so as to adjust their final concentrations to 40 ng/mL and 10 μM, respectively, followed by culturing under conditions of 5% CO2 and 37° C. After 48 hours of the culturing, cells were fixed in a 10% neutral formalin solution for 30 minutes, washed with phosphate-buffered physiological saline and distilled water, and then dried. […] The percentage of the number of cells having an neutrite extended to a length longer than the diameter of the cell body relative to the total number of cells observed (neutrite outgrowth rate) was calculated.
The activity to accelerate neutrite outgrowth was calculated according to the following expression as a neutrite outgrowth acceleration rate attained by the addition of each test compound, by taking a neutrite outgrowth rate due to NGF as 100%: (neutrite outgrowth rate attained by addition of each test compound)/(neutrite outgrowth rate due to NGF)×100 (%)

sciatic nerve = test: Activity to accelerate nerve regeneration (cut sciatic nerve, silicone tube model); type: in vivo, SD strain rats; conditions: 1 mg/kg orally once a day from the seventh day; measured 21 days after cutting the nerve; regeneration distance relative to control group x100
Protocol: [Activity to Accelerate Nerve Regeneration]
The test was carried out according to the method described in J. Pharmaco. Exp. Ther., Vol. 290, page 348 (1999) and Neuroscience, vol. 88, page 257 (1999).
SD strain rats (male, aged 6 to 7 weeks, and weighing 170 to 280 g) were anesthetized with pentobarbital, and the left sciatic nerve of each rat was exposed in the femoral region, separated from the surrounding connective tissue, and then cut at a distal position which was about 1 cm apart from the gluteus. The ends of the nerve were inserted into a sterilized silicone tube with a length of 8 mm (inside diameter 1.3 mm, and outside diameter 1.8 mm) to a depth of 3.5 mm so that a space of 1 mm might be formed in the middle of the tube. The ends of the nerve were fixed and the nerve was put back to the muscular tissue together with the tube, after which the incised part was sutured. On the seventh day, each test compound dissolved in distilled water was orally administered in a dose of 1 mg/kg, and thereafter the test compound was administered once a day for 13 days in the same manner as above.
Twenty-one days after cutting the nerve, the sciatic nerve was exposed again under pentobarbital anesthesia, and the nerve in the femoral region and the crural region was separated from the surrounding connective tissues, after which the silicone tube at the cut part was removed. A stimulation electrode was set on the proximal side with respect to the cut position, and a recording electrode was set at the most distal position in the crural region. An electric stimulus (voltage: 2 V, delay: 1 msec, and duration: 100 μsec) was given, and an action potential induced by the stimulus was recorded. The recording electrode was gradually moved toward the proximal, and the distance between the cut position and the most distal position at which an action potential had been obtained was measured as regeneration distance. Only distilled water was administered to a control group.
The sciatic nerve regeneration rate of the test compound was calculated according to the following expression: (regeneration distance of drug-treated group)/(regeneration distance of control group)×100 (%)

[2] = system: cultured neurons from cerebral cortices; test: Activity to inhibit the neuronal death induced by Aβ (MTT assay); type: cell-based, Wistar strain rats; conditions: concentration of 1 μM; Aβ (25 to 35 residues) 20 μmol/L
Protocol: [Activity to Inhibit the Neuronal Death Induced by Aβ]
Inhibitory effect on the death of cultured neurons induced by Aβ was investigated by modifying the method described in Brain Res., vol. 639, page 240 (1994).
Cerebral cortices isolated from the brains of embryos (aged 17 to 19 days) of Wistar strain rats were sliced, and then neurons were dissociated by trypsin treatment. The cells were seeded into a 48-well tissue culture plate at a density of 1×10^5 cells per well and cultured under conditions of 5% CO2 and 37° C. on Dulbecco's modified Eagle's medium added B27 supplement (available from GIBCO BRL) and 3.6 mg/mL glucose.
On the 12th to 13th day of the culture, a potassium chloride solution was added to the medium to adjust the final concentration of potassium chloride to 25 mmol/L. Immediately after this addition, each test compound was added to the medium. After 24 hours, Aβ (a peptides comprising 25 to 35 residues) dissolved in distilled water was added to the medium at a final concentration of 20 μmol/L. After another 24 hours, the medium was replaced with Dulbecco's modified Eagle's medium added B27 supplement and 3.6 mg/mL glucose and test compound.
The inhibitory activity of the test compound against the death of cultured neurons was determined by inhibition against the decrease of reducing ability of MMT. That is, MTT assay [J. Immuno. Methods, vol. […] Inhibition rate=[(MTT assay value of a group treated with Aβ and the drug)−(MTT assay value of a group treated with Aβ)]/[MTT assay value of an untreated group−MTT assay value of a group treated with Aβ]×100 (%).

Row | melting point | Compound | residual rate [1] | neutrite outgrowth acceleration rate (PC12 cells) | sciatic nerve regeneration rate (sciatic nerve) | inhibition rate against decrease of MTT assay value induced by Aβ [2]
1 |  | OC1CN(CCCOCCc2cccc3sccc23)C1 [Example 12, 1-{3-[2-(1-benzothiophen-4-yl)ethoxy]propyl}-3-azetidinol hydrochloride] | 83% | 299% | 142% | 
2 |  | CN(C)C1CCN(CCCOCCc2ccc3sccc3c2)C1 (stereo not shown) [Example 80, 1-{3-[2-(1-benzothiophen-5-yl)ethoxy]propyl}-N,N-dimethyl-3-pyrrolidinamine dihydrochloride] |  | 190% |  | 75%
3 |  | OC1CCN(CCCOCCc2ccc3sccc3c2)C1 (stereo not shown) [Example 59, 1-{3-[2-(1-benzothiophen-5-yl)ethoxy]propyl}-3-pyrrolidinol hydrochloride] |  | 241% |  | 
4 |  | COc1cc2ccoc2cc1CCOCCN1CCC(O)C1 (stereo not shown) [Example 51, 1-{2-[2-(5-methoxy-1-benzofuran-6-yl)ethoxy]ethyl}-3-pyrrolidinol oxalate] |  | 216% |  | 
5 |  | O[C@@H]1CCN(CCOCCc2ccc3sccc3c2)C1 [Example 33, (3R)-1-{2-[2-(1-benzothiophen-5-yl)ethoxy]ethyl}-3-pyrrolidinol oxalate] |  |  | 161% | 54%
6 |  | OC1CN(CCCOCCc2csc3ccccc23)C1 [Example 14, 1-{3-[2-(1-benzothiophen-3-yl)ethoxy]propyl}-3-azetidinol hydrochloride] | 75% | 207% | 150% | 48%
7 |  | OC1CN(CCOCCc2ccc3sccc3c2)C1 [Example 2, 1-{2-[2-(1-benzothiophen-5-yl)ethoxy]ethyl}-3-azetidinol hydrochloride] |  | 265% |  | 
8 |  | NC1CCN(CCCOCCc2ccc3sccc3c2)C1 (stereo not shown) [Example 74, 1-{3-[2-(1-benzothiophen-5-yl)ethoxy]propyl}-3-pyrrolidinamine oxalate] | 71% | 246% |  | 50%
9 |  | OC1CN(CCCOCCc2ccc3ccsc3c2)C1 [Example 4, 1-{3-[2-(1-benzothiophen-6-yl)ethoxy]propyl}-3-azetidinol hydrochloride] | 80% |  | 167% | 63%
10 |  | OC1CCN(CCOCCc2cccc3ccccc23)C1 (stereo not shown) [Example 29, 1-{2-[2-(1-naphthyl)ethoxy]-ethyl}-3-pyrrolidinol oxalate] |  | 212% |  | 
11 |  | O[C@H]1CCN(CCOCCc2ccc3sccc3c2)C1 [Example 31, (3S)-1-{2-[2-(1-benzothiophen-5-yl)ethoxy]ethyl}-3-pyrrolidinol oxalate] |  |  | 155% | 50%
12 |  | O[C@@H]1CN(CCOCCc2ccc3sccc3c2)C[C@@H]1O [Example 71, (3R, 4S)-1-{2-[2-(1-benzothiophen-5-yl)ethoxy]ethyl}-3,4-pyrrolidinediol hydrochloride] | 80% | 183% |  | 
13 |  | OC1CN(CCCOCCc2cc3ccccc3s2)C1 [Example 6, 1-{3-[2-(1-benzothiophen-2-yl)ethoxy]propyl}-3-azetidinol hydrochloride] |  | 300% |  | 48%
14 |  | OC1CCN(CCOCCc2ccc3ccccc3c2)C1 (stereo not shown) [Example 69, 1-{2-[2-(2-naphthyl)ethoxy]ethyl}-3-pyrrolidinol oxalate] | 74% | 233% |  | 70%
15 |  | OC1CN(CCCOCCc2ccc3sccc3c2)C1 [Example 81, 1-{3-[2-(1-benzothiophen-5-yl)ethoxy]propyl}-3-azetidinol 1/2 fumarate] |  | 190% |  | 
16 | 101 to 102 °C | OC1CN(CCOCCc2ccc3sccc3c2)C1 (as salt: hydrochloride) [Example 2, 1-{2-[2-(1-benzothiophen-5-yl)ethoxy]ethyl}-3-azetidinol hydrochloride] |  |  |  | 
17 |  | OC1CN(CCCOCCc2ccc3sccc3c2)C1 [Example 10, 1-{3-[2-(1-benzothiophen-5-yl)ethoxy]propyl}-3-azetidinol hydrochloride] | 70% |  | 186% | 42%
18 |  | OC1CCN(CCCOCCc2ccc3occc3c2)C1 (stereo not shown) [Example 61, 1-{3-[2-(1-benzofuran-5-yl)ethoxy]propyl}-3-pyrrolidinol hydrochloride] | 74% |  |  | 52%
